Test results: patent US20260191817A1, “FIBROBLAST MODULATORS IN STROMA-RICH TUMORS” (UNIVERSITEIT GENT, priority 2022, published 2026)
Entries after “also recorded” stand apart in the source; their conditions may differ.

Tests used:
[1] = tested on: CAF03 glioblastoma CAFs; test: AFM spheroid stiffness, CAF03 glioblastoma CAFs; format: cell-based; settings: 1 μM, 48 h
Text: It is well established that an increased tumor and ECM stiffness is associated with a negative prognosis as it promotes tumor growth, progression, therapy resistance, immunosuppression and metastasis. Stiffness is chiefly regulated by the action of the CAFs in the TME. Stiffness modulation is, therefore, a fitting read-out of activity in a screen for CAF modulators. To assess stiffness modulation, the stiffness of spheroids of CAF cells treated with test compounds was interrogated using atomic force microscopy (AFM) indentation and compared with untreated cells. AFM measurement of the stiffness (elasticity) of cells and spheroids is a technique well-known to those skilled in the art. AFM measures the force required to create a given deflection, this read-out is also known as the Young's modulus. AFM is widely used in biology and cancer research: altered physicochemical properties of live cells serve as a read-out of altered complex physiological processes.
U-shaped, 384-well ULA plates (cat. no. MS-9384UZ, S-bio) were seeded with a suspension of cell-specific culture media with cells. Cells were allowed to form spheroids for an appropriate time under treatment conditions before use in experiments. Cell culture dishes (cat. no. 734-2814, VWR) were filled with collagen gel and placed at 37° C. for an appropriate time to allow solidification. For each condition, spheroids were pooled in one cell culture dish. The medium was removed (stored at 37° C.) to promote attachment of the bottom of each spheroid to the collagen gel. The cell culture dishes were incubated at 37° C. After the incubation period, the stored medium was carefully (prevent detachment of spheroids) added to the dishes.
Mechanical measurements were performed using an atomic force microscope. To indent the spheroids an in-house made colloidal probe was used. Force curves were collected using an appropriate setpoint and probe speed (depending on the stiffness of the spheroids). On each spheroid multiple force curves were collected. Collected curves were then processed using the JPK DP software. Young's modulus was extracted from the force curves. All experiments were performed in biological triplicate.
To generate 3D cultures mimicking the complexity and pathophysiology of in vivo tumors, spheroids were used (cfr. point 4). Spheroids are considered to better simulate cellular heterogeneity, nutrient and oxygen gradients, cell-cell interactions, cell-matrix interactions, gene expression profiles, stromal interactions, therapeutic responses, multicellular resistance, drug penetration and anti-apoptotic signaling.

[2] = tested on: 13B2 hTERT, CT5.3 hTERT, HCA2 hTERT, MCF-7/6 and 4T1-Luc cells; test: 2D CellTiter-Glo Cell Viability Assay; format: cell-based; settings: 48 h of treatment
Method: The half maximal inhibitory concentration (IC50) of A1 was evaluated using a CellTiter-Glo® 2.0 Cell Viability Assay (cat. no. G9243, Promega) and a CellTiter-Glo® 3D Cell Viability Assay (cat. no. G9681, Promega). 13B2 hTERT cells (2D: 2×10^5, 3D: 8×10^4) were plated in each well of a Nunc™ MicroWell™ 96-Well, Nunclon Delta-Treated, Flat-Bottom Microplate (cat. no. 167008, Thermo Fisher Scientific) for 2D experiments or 96-well ULA plate (cat. no. MS-9096UZ, S-bio) in a volume of 90 μL/well. A1 was serially diluted in the appropriate medium to 10× the final concentrations. For each treatment condition, 10 μL was added to 3 replicate wells (final concentrations ranging from 1-100 μM) and plates were incubated for 48 h.
The CellTiter-Glo Cell Viability Assay was performed according to manufacturer's instructions. Briefly, the plates and the CellTiter-Glo® Reagent were equilibrated to room temperature (RT). The CellTiter-Glo® Reagent was added to each well in a 1:1 (v/v) ratio. For 2D experiments, cell lysis was induced by placing the plates on an orbital shaker for 2 min, followed by stabilization of the luminescent signal for 10 min. […] Afterwards, the luminescence was measured using a Synergy™ HTX Multi-Mode Microplate Reader (BioTek). The IC50 value was determined using the Graphpad Prism software. […]

[3] = 4T1-based intraductal model: tolerability; format: in vivo; settings: oral in Medigel, 100 mg/kg three times per day; weekly evaluation across 6 w study period
Method: Compounds were dissolved in DMSO. The compound solution was subsequently aspired using a 1 mL syringe and an 18 G (pink) needle, including additional air to help eject all the solution and avoid retention of compound in the dead volume. The solution was injected into a Medigel in five parts at five different sites and a volume of gel was aspired and reinjected into the cup at the last site to rinse the dead volume of the syringe. The medication was shaken vigorously afterwards and visually examined for even dispersion of compound. Mice received freshly prepared cups with medication every 48 h and gels were placed in gel cup holders to avoid contact with bedding material and absorbent shavings in the mouse cage. The amount of Medigel given to the mice was weekly determined and depended on the mean mouse body weight and consumption. The dosing level was kept constant at 100 mg/kg three times per day.
Body weight and body temperature were measured every day during the first week p.i., and once a week during the following 5 weeks (i.e. up to 6 w p.i.) using a digital weighing scale and a rectal temperature probe, respectively. As a measurement of primary tumor growth, primary tumor volumes were weekly monitored using a digital caliper and 4T1-luc-derived bioluminescence in primary tumors was monitored at 1, 3 and 6 w p.i. using the IVIS lumina III system (PerkinElmer, Zaventem, Belgium). To perform in vivo imaging, mice were injected with 200 μl D-luciferin suspended in PBS (2 mg/100 μl; Gold Biotechnology, St. Louis, MO) and images were acquired 10 min later under inhalation anesthesia. To perform ex vivo imaging, mice were sedated with a mixture of 100 mg/kg ketamine (Ketamidor, Ecuphar nv/sa, Oostkamp, Belgium) and 10 mg/kg xylazine (Xylazini Hydrochloridum, Val d'HonyVerdifarm, Beringen, Belgium) and subsequently sacrificed through cervical dislocation. Images of bioluminescent signals in isolated primary tumors, spleens and metastases-bearing organs (including axillary lymph nodes, lungs and liver) were quickly acquired using the IVIS system. Primary tumors and spleens were also weighed using a digital weighing scale. Analysis of the in vivo and ex vivo bioluminescent signals was performed using the living image software 4.7.2.

Row | Structure (SMILES) | spheroid stiffness [1] | IC50 value, metabolic activity of 2D cultures [2] | Body temperature [3] | Body weight [3]
1 | COc1cc(C(=O)/C=C/c2ccc(F)cc2)cc(OC)c1OC [Compound A1, 3-(4-Fluorophenyl)-1-(3,4,5-trimethoxyphenyl)prop2-en-1-one] | decreased; also recorded: active | high micromolar | no significant variation | no significant variation
2 | COc1cc2oc(-c3ccc(F)cc3)cc(=O)c2c(OC)c1OC [Compound B1, 2-(4-Fluorophenyl)-5,6,7-trimethoxy-4H-chromen-4-one] | active | high micromolar | no significant variation | no significant variation
